In data set [1] the test system is A. baumannii ATCC19606.
In data set [2] the test system is A. baumannii ATCC19606. Kind of data set: microbe, parasite or virus in culture. Conditions: Acinetobacter baumannii, ATCC19606, read-out: MIC alone.
Data set [3] deals with twenty biofilm-forming A. baumannii strains. The data set is described as follows: Inhibition of biofilm formation (crystal violet). The class given is cell-based, Acinetobacter baumannii. The arrangement: Percent biofilm forming inhibition: concentration or dose not given beside the values. The method, then: We determined the ability of peptides to inhibit biofilm formation in twenty biofilm-forming strains using the method described by [Karyne et al. (2020)] with some modifications. Briefly, biofilm-forming strains of A. baumannii were adjusted to an equivalent of the 0.5 McFarland standard in 2× Luria Bertani (LB) broth supplemented with 20% glucose. Then, 50 µL of A. baumannii and 50 µL of peptides were added. […] The plates were incubated overnight at 37 °C. After 24 h of incubation, the culture medium was gently removed, and the wells were washed three times with phosphate-buffered saline. The adherent cells were fixed with absolute methanol for 10 min, stained with 0.4% crystal violet for 15 min, and washed three times with sterile distilled water, then air-dried. The plates were then filled with 250 µL of 33% acetic acid for 15 min. The absorbance at OD595 nm was determined. All experiments were performed in three independent assays, each repeated in triplicate, and the percentage of biofilm reduction was calculated based on treated wells vs. non-treated wells.

Data set [4] relates to A. baumannii ATCC19606. Conditions: ATCC19606.
The test system of data set [5] is Staphylococcus aureus. As to conditions: S. aureus, sensitive.
In data set [6] the test system is HepG2 cell line. Kind of data set: MTT cell viability assay. The class given is cell-based, human. As to conditions: mean of n = 3. Details: key to Mean cell viability (Mean 2; control = 100): % viability relative to control (control = 100%). As for the experimental part: We aimed to determine the effects of peptides on cell viability and proliferation in the human hepatocellular carcinoma HepG2 cell line. The MTT assay was performed as described by [Muangpat et al. (2022)] with some modifications. The cells were cultured in Dulbecco’s Modified Eagle Medium (DMEM; Sigma-Aldrich, St. Louis, MO, USA), supplemented with 10% fetal bovine serum (FBS), 100 U/ml penicillin, and 100 μg/ml streptomycin at 37 °C in 5% CO^2 and 95% humidity. The cells were seeded into a 96-well plate at a density of 1 × 10^4 cells/well and allowed to adhere overnight. Then, the cells were exposed for 24 h to various concentrations of peptides. The control cells were cultured in complete DMEM medium containing 0.2% DMSO. After the 24-h incubation period, 20 μL of MTT solution (5 mg/mL in PBS) (Tokyo Chemical Industry Co., Ltd., Tokyo, Japan) was added to each well and incubated for another 2 h at 37 °C. The culture medium was then removed, and formazan crystals formed by viable cells were dissolved in 100 μL of DMSO before measuring the absorbance at 590 nm using a microplate spectrophotometer. The effect of the peptide on cell viability was calculated as a percentage of the control, which was arbitrarily assigned a value of 100% viability. The percentage of cell viability was calculated relative to the control group. The IC₅₀ of the peptides was defined as the concentration that caused a 50% reduction in cell viability compared with the control. The MTT assay was conducted in three independent experiments, each with triplicate wells per condition.
(Tetrazolium assays rely on reduction of a dye to a coloured formazan, in cell work by metabolically active cells.)

For data set [7], the system named is Bacillus subtilis. Conditions: B. subtilis, sensitive.
The subject of data set [8] is Pseudomonas aeruginosa. Conditions: P. aeruginosa, sensitive.
Data set [9] relates to Escherichia coli. As to conditions: E. coli, sensitive.
The subject of data set [10] is MDR-AB, XDR-AB.
Data set [11] concerns Klebsiella pneumoniae. Conditions: K. pneumoniae, sensitive.

≈ marks a conversion by molar mass, not a printed value. Like-named read-outs stand apart in the source and are kept apart here. Where no end group is shown, it is not given here.

For `O=C(O)CC(O)(CC(=O)O)C(=O)O` [Citric acid, reference compound], in data set [1] (A. baumannii 19606, microdilution, triplicate samples), the “MIC values of outer membrane permeabilizers and colistin” value came out at 5000 µg/mL. Moreover, in data set [2], the MIC turned out to be 5000 µg/mL (≈ 26 mM).
In the case of “LIAIQIAIKGMLNGWFTGVGFRRKR-NH2 [PE04-1(NH2)]”, in data set [3] (strain AB263, MDR-AB, 2014), the “Percent biofilm forming inhibition” value was determined as 89.6713%. Also, in [3] (twenty A. baumannii strains, peptide at MIC (312.5, 156.25, 156.25 µg/mL), 24 h, crystal violet OD595), the “average percent inhibition of biofilm formation” value is listed as 75.51%. Moreover, the “Minimum Inhibitory Concentration (MIC)” value in data set [1] (A. baumannii 19606, sensitive) stood at 156.25 µg/mL; in data set [5] it was 39.06 µg/mL; in data set [7], 19.531 µg/mL; in data set [8] it was 2500 µg/mL; in [9], 156.25 µg/mL; in data set [10] (strain AB003, MDR-AB) it was 156.25 µg/mL. In addition, the “Minimum Inhibitory Concentration (MIC)” value in data set [10] (strain AB183, XDR-AB) was determined as 156.25 µg/mL; in [10] (strain AB329, XDR-AB) it was 312.5 µg/mL; in data set [10] (strain CR89, MDR-AB), 312.5 µg/mL; in [11] it was 625 µg/mL. This molecule gave an MIC values in data set [1] (A. baumannii 19,606, microdilution, MHB, 37 °C overnight, triplicate samples) of 156.25 µg/mL. For the same molecule, the “MIC (ATCC19606)” value in data set [1] (A. baumannii ATCC19606) stood at 156.25 µg/mL. Moreover, the “FIC index, peptide plus colistin” value in data set [4] is 0.19. The “Mean cell viability (Mean 2; control = 100)” value in data set [6] (peptide concentration 25 (unit not given)) was 94.88; in [6] (peptide concentration 50 (unit not given)) it was 86.43; in [6] (peptide concentration 156.25 (unit not given)), 81.93; in data set [6] (peptide concentration 300 (unit not given)), 76.66; in data set [6] (peptide concentration 600 (unit not given)), 49.65; in data set [6] (peptide concentration 800 (unit not given)), 28.83.

Source of the values: article PMC11674141, “Antimicrobial activity and synergistic effect of phage-encoded antimicrobial peptides with colistin and outer membrane permeabilizing agents against Acinetobacter baumannii” (PeerJ, 2024).
